{
  "source": "patent US7396844B1",
  "about": "“Benzamidine derivatives” (Ajinomoto Co., Inc., priority 1997, dated 2008)",
  "key": {"[1]": {"target": "T1, activated human blood coagulation factor X (Homo sapiens, UniProt P00742)", "T1 construct": "purchased Enzyme Research Co", "T1 sequence (P00742 235-488 limits assumed)": "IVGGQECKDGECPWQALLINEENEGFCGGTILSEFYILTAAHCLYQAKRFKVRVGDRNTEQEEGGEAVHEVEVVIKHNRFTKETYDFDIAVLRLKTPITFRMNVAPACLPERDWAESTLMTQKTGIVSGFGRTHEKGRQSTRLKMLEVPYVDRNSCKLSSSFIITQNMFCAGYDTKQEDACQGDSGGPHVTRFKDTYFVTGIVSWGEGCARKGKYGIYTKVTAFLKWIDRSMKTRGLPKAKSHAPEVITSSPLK", "T1 sequence (P00742 41-179 partner limits assumed)": "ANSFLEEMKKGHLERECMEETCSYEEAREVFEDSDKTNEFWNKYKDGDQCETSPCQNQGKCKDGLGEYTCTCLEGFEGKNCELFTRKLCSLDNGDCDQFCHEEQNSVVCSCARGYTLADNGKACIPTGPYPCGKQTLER", "assay": "Determination of activity of inhibiting the activated blood coagulation factor X", "format": "biochemical", "settings": "for IC50: Table 2, same manner as Example 93, read-out: Activity of inhibiting activated blood coagulation factor X (pIC50) (converted)", "description": "130 μl of 100 mM Tris-HCl buffer adjusted to pH 8.4 was added to 10 μl of an aqueous solution of a compound to be tested. Then 10 μl of a 0.5 unit/ml solution of activated human blood coagulation factor X (a product of Enzyme Research Co.) in Tris-HCl buffer hydrochloride of pH 8.4 was added to the resultant mixture. After the incubation at room temperature for 10 minutes, 50 μl of a solution of N-benzoyl-L-isoleucyl-L-glutamyl-glycyl-L-arginyl-p-nitroanilide hydrochloride (a product of Peptide Institute, Inc.) adjusted to 0.8 mM with Tris-HCl buffer (pH 8.4) was added thereto. The absorbance was determined and then the initial reaction rate was determined. A control was prepared in the same manner as that described above except that the solution of the compound to be tested was replaced with 10 μl of Tris-HCl buffer adjusted to pH 8.4."}, "blood plasma": {"tested_on": "blood plasma", "assay": "Determination of blood anticoagulating activity by prothrombin time (PT)", "format": "biochemical, human", "parameters": "key: -log of concentration doubling control PT", "settings": "Table 2; negative logarithm of concentration that elongated PT of the control to twice as long; plasma of healthy people", "description": "The blood anticoagulating activity was determined by a prothrombin time (PT) determination method. The PT was determined as follows: The blood was taken from healthy people. […] The blood plasma was separated by the centrifugation. 5 μl of DMSO solution containing a test compound was added to 45 μl of the blood plasma. After the incubation at room temperature for 2 minutes, a test tube containing the blood plasma solution was placed in Sysmex CA-3000 fully automatic blood coagulation determination device (a product of Toa Medical Electronics Co., Ltd), and incubated at 37° C. for 3 minutes. […] PT was automatically determined with the device. A sample containing 5 μl of DMSO in place of the solution of the test compound was used as the control. The negative logarithm (PT2) of the concentration of the test compound which elongated PT of the control to the twice as long was determined, and employed as the index of the blood anticoagulating activity."}, "human thrombin": {"target": "T2, human thrombin (Homo sapiens, UniProt P00734)", "T2 construct": "human thrombin (a product of SIGMA Co.); purchased SIGMA Co", "assay": "Determination of thrombin-inhibiting activity", "format": "biochemical", "settings": "for IC50: Table 2, same manner as Example 94, read-out: Thrombin-inhibiting activity (pIC50) (converted)", "description": "130 μl of 100 mM Tris-HCl buffer adjusted to pH 8.4 was added to 10 μl of an aqueous solution of a test compound. Then 10 μl of a solution of human thrombin (a product of SIGMA Co.) adjusted to 2 units/ml with Tris-HCl buffer of pH 8.4 was added to the resultant mixture. […] The absorbance was determined and then the initial reaction rate was determined. A control was prepared in the same manner as that described above except that the solution of the compound to be tested was replaced with 10 μl of tris hydrochloride buffer adjusted to pH 8.4."}},
  "data": [
    {"compound": "N=C(N)c1ccc(C(=O)NCCOc2cccc(C(=N)N)c2)cc1.O=C(O)C(F)(F)F.O=C(O)C(F)(F)F", "note": "[Compound of Ex. 95, N-[2-(3-amidinophenoxy)ethyl]-4-amidinobenzamide bistrifluoroacetate]", "values": [
      {"measurement": "IC50", "setting": "[1]", "result": 0.316, "unit": "µM"},
      {"measurement": "Blood anticoagulating activity (PT2)", "setting": "blood plasma", "result": 5.9}
    ]},
    {"compound": "N=C(N)c1cccc(OCCNC(=O)c2ccc(CN)cc2)c1.O=C(O)C(F)(F)F.O=C(O)C(F)(F)F", "note": "[Compound of Ex. 98, N-[2-(3-amidinophenoxy)ethyl]-4-(aminomethyl)benzamide bistrifluoroacetate]", "values": [
      {"measurement": "IC50", "setting": "[1]", "result": 3.16, "unit": "µM"},
      {"measurement": "IC50", "setting": "human thrombin", "result": 631, "unit": "µM"},
      {"measurement": "Blood anticoagulating activity (PT2)", "setting": "blood plasma", "result": "<4.5"}
    ]},
    {"compound": "CC(=N)N1CCC(Oc2ccc(C(=O)NCCOc3cccc(C(=N)N)c3)cc2)CC1.O=C(O)C(F)(F)F.O=C(O)C(F)(F)F", "note": "[Compound of Ex. 99, N-[2-(3-amidinophenoxy)ethyl]-4-(1-acetimidoyl-4-piperidyloxy)benzamide bistrifluoroacetate]", "values": [
      {"measurement": "IC50", "setting": "[1]", "result": 0.251, "unit": "µM"},
      {"measurement": "IC50", "setting": "human thrombin", "result": 316, "unit": "µM"},
      {"measurement": "Blood anticoagulating activity (PT2)", "setting": "blood plasma", "result": 6.2}
    ]},
    {"compound": "N=C(N)c1ccc(C(=O)N[C@@H](COc2cccc(C(=N)N)c2)Cc2ccccc2)cc1.O=C(O)C(F)(F)F.O=C(O)C(F)(F)F", "note": "[Compound of Ex. 117, N-[(1R)-2-(3-amidinophenoxy)-1-benzylethyl]-4-amidinobenzamide bistrifluoroacetate]", "values": [
      {"measurement": "IC50", "setting": "[1]", "result": 0.0398, "unit": "µM"},
      {"measurement": "IC50", "setting": "human thrombin", "result": 251, "unit": "µM"},
      {"measurement": "Blood anticoagulating activity (PT2)", "setting": "blood plasma", "result": 6.7}
    ]},
    {"compound": "N=C(N)c1ccc(C(=O)N[C@H](CCC(=O)O)COc2cccc(C(=N)N)c2)cc1", "note": "[Compound of Ex. 121, (4R)-4-(4-amidinobenzoylamino)-5-(3-amidinophenoxy)pentanoic acid bistrifluoroacetate]", "values": [
      {"measurement": "IC50", "setting": "[1]", "result": 0.0501, "unit": "µM"},
      {"measurement": "IC50", "setting": "human thrombin", "result": "> 1000", "unit": "µM"}
    ]},
    {"compound": "N=C(N)c1ccc(C(=O)NCCCOc2cccc(C(=N)N)c2)cc1.O=C(O)C(F)(F)F.O=C(O)C(F)(F)F", "note": "[Compound of Ex. 122, N-[3-(3-amidinophenoxy)propyl]-4-amidinobenzamide bistrifluoroacetate]", "values": [
      {"measurement": "IC50", "setting": "[1]", "result": 0.501, "unit": "µM"},
      {"measurement": "IC50", "setting": "human thrombin", "result": "> 1000", "unit": "µM"},
      {"measurement": "Blood anticoagulating activity (PT2)", "setting": "blood plasma", "result": 4.5}
    ]},
    {"compound": "N=C(N)c1ccc(C(=O)NCCSc2cccc(C(=N)N)c2)cc1.O=C(O)C(F)(F)F.O=C(O)C(F)(F)F", "note": "[Compound of Ex. 143, N-[2-(3-amidinophenylthio)ethyl]-4-amidinobenzamide bistrifluoroacetate]", "values": [
      {"measurement": "IC50", "setting": "[1]", "result": 0.501, "unit": "µM"},
      {"measurement": "Blood anticoagulating activity (PT2)", "setting": "blood plasma", "result": 5.3}
    ]},
    {"compound": "N=C(N)c1ccc(C(=O)NCCCc2cccc(C(=N)N)c2)cc1.O=C(O)C(F)(F)F.O=C(O)C(F)(F)F", "note": "[Compound of Ex. 144, N-[3-(3-amidinophenyl)propyl]-4-amidinobenzamide bistrifluoroacetate]", "values": [
      {"measurement": "IC50", "setting": "[1]", "result": 1.58, "unit": "µM"},
      {"measurement": "Blood anticoagulating activity (PT2)", "setting": "blood plasma", "result": 5}
    ]},
    {"compound": "N=C(N)c1ccc(C(=O)NCCOc2cc(C(=N)N)ccc2CC(=O)C(=O)O)cc1", "note": "[Compound of Ex. 147, bistrifluoroacetate]", "values": [
      {"measurement": "IC50", "setting": "[1]", "result": 0.0398, "unit": "µM"},
      {"measurement": "IC50", "setting": "human thrombin", "result": 20, "unit": "µM"},
      {"measurement": "Blood anticoagulating activity (PT2)", "setting": "blood plasma", "result": 6.5}
    ]},
    {"compound": "CCS(=O)(=O)N[C@H](COc1cccc(C(=N)N)c1)Cc1ccc(OC2CCN(C(C)=N)CC2)cc1", "note": "[Compound of Ex. 160, 3-[(2S)-2-(ethanesulfonylamino)-3-[4-(1-acetimidoyl-4-piperidyloxy)phenyl]propoxy]benzamidine bistrifluoroacetate]", "values": [
      {"measurement": "IC50", "setting": "[1]", "result": 0.316, "unit": "µM"},
      {"measurement": "IC50", "setting": "human thrombin", "result": 158, "unit": "µM"}
    ]},
    {"compound": "CC(=N)N1CCC(Oc2ccc(C[C@@H](COc3cccc(C(=N)N)c3)NS(=O)(=O)c3ccc4ccccc4c3)cc2)CC1", "note": "[Compound of Ex. 162, 3-[(2S)-2-(2-naphthalenesulfonylamino)-3-[4-(1-acetimidoyl-4-piperidyloxy)phenyl]propoxy]benzamidine bistrifluoroacetate]", "values": [
      {"measurement": "IC50", "setting": "[1]", "result": 0.251, "unit": "µM"},
      {"measurement": "IC50", "setting": "human thrombin", "result": 39.8, "unit": "µM"}
    ]},
    {"compound": "N-[2-(3-amidinophenoxy)ethyl]-1-(4-pyridyl)piperidine-4-carboxyamide bistrifluoroacetate [Compound of Ex. 24]", "values": [
      {"measurement": "Activity of inhibiting activated blood coagulation factor X (pIC50)", "setting": "[1]; Table 1, negative logarithm of concentration inhibiting 50% of initial rate, Tris-HCl pH 8.4, room temperature", "result": 6.5},
      {"measurement": "Thrombin-inhibiting activity (pIC50)", "setting": "human thrombin; Table 1, negative logarithm of concentration inhibiting 50% of initial rate, substrate S-2238, Tris-HCl pH 8.4", "result": 3.2}
    ]}
  ]
}
